Measured values published in patent US20230271949A1, “GLP-1R MODULATING COMPOUNDS” (ASCLETIS BIOSCIENCE CO., LTD., priority 2022, published 2023).

How the values were obtained:
GLP-1R [1] = target: T1, GLP-1R (Homo sapiens, UniProt P43220); experiment: Tag-lite binding assay (competition with GLP-1 receptors red agonist); conditions: for IC50: HEK293 GLP-1 cells labeled with SNAP-Lumi4-Tb, red agonist 4.917 nM, 23° C., 2 h; for Ki: calculated from sample IC50 and red agonist Kd
Protocol: B. Tag-Lite Binding Assay
The cell line was constructed by WuXi.
10) Dispense cells into cell plate (1.8 M cells/well in 2 ml medium of 6-well plate, total 4 wells).
Second Day: Tag-Lite Binding Assay
3) The cell culture medium is removed from the 6-well plate and then 1 mL of Tag-lite SNAP-Lumi4-Tb diluted in Tag-lite labeling medium are added gently on the cells.
7) The testing compounds and reference compound are serially diluted with 3-fold, 10 points using Echo, then transfer 100 nL compounds to the assay plate.
8) Add the labeled cells to each well according to the plate map, 10000 cells/10 uL/well. Centrifuge the plate at 1000 rpm for 1 min.
9) Incubate the plate at 23° C., 30 min.
10) Add 50 nL of red agonist (final conc.: 4.917 nM) to destination plate using Echo.
11) Incubate the plate at 23° C. for 2 h.
12) Read the plate on an HTRF® compatible reader (at 665 nm and 620 nm).
% Inhibition=100%−(Ratio−LC)/(HC−LC)*100%
HC: The average ratio of adding DMSO wells
LC: The average ratio of adding the top concentration of reference compounds wells
b) The “log (inhibitor) vs. response—Variable slope” model in GraphPad Prism 5.0 was used to fit the dose-response curve of each sample. The sample concentration (x) and its corresponding % Inhibition data (y) were substituted into the model. The sample concentration (abscissa) was x=log(x) transformed. The transformed xy was used as the sample curve to obtain the IC50.
c) Calculate the sample Ki according to the sample IC50 and red agonist Kd. S in the formula is the actual used concentration of red agonist.

GLP-1R [2] = target: T1, GLP-1R; experiment: GLP-1R agonist cAMP stimulation assay (HTRF cAMP); format: cell-based; conditions: HEK293 cell line expressing GLP-1 target; HTRF cAMP agonist mode, 30 min at RT
Outline: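 GLP-1R-expressing cells were stimulated with 10-point, 3-fold compound dilutions for 30 min at RT; HTRF cAMP detection reagents were then added for 60 min and the 665/615 ratio read. Ratios were converted to cAMP via a standard curve and % activity scaled between DMSO and top-concentration GLP-1(7-37) reference wells.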

T1 sequence (P43220 24-463): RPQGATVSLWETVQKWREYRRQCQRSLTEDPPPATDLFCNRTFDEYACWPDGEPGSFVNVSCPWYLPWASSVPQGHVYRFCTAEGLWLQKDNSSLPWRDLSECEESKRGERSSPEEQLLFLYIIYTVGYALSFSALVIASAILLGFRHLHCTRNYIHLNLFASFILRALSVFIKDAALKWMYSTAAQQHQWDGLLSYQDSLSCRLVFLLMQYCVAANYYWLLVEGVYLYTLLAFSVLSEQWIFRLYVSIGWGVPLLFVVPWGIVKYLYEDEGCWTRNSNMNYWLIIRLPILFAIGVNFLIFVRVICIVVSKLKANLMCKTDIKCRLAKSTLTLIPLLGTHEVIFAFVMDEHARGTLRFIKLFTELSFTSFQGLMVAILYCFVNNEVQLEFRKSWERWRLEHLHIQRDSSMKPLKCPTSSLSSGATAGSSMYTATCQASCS

SMILES	IC50 (GLP-1R [1]) [nM]	Ki (GLP-1R [1]) [nM]	EC50 (GLP-1R [2]) [nM]
O=C(Nc1ccc2c(c1)C1(CC1)C(=O)N2)c1ccc2c(c1)nc(CN1CCC(c3cccc(OCc4ccc(Cl)cn4)n3)CC1)n2C[C@@H]1CCO1 [Compound 101]	1280	641	0.75
Cc1n[nH]c2c(F)cc(C(=O)Nc3ccc4c(c3)nc(Cc3c(F)cc(-c5cccc6c5O[C@](C)(c5ccc(Cl)cn5)O6)cc3F)n4CC3CCO3)cc12 (stereo partly shown) [Compound 387]	346	205	0.86
O=C(Nc1ccc2[nH]c(=O)[nH]c2c1)c1ccc2c(c1)nc(CN1CC=C(c3cccc(OCc4ccc(Cl)cc4F)n3)CC1)n2C[C@@H]1CCO1 [Compound 147]	1750	841	0.68
O=C(Nc1ccc2c(c1)nc(CN1CC=C(c3cccc(OCc4ccc(Cl)cn4)n3)CC1)n2C[C@@H]1CCO1)c1ccc2[nH]c(=O)[nH]c2c1 [Compound 207]	149	82.4	0.43
O=C(NCC(=O)N1CC(F)(F)C[C@H]1C(=O)O)c1ccc2c(c1)nc(CN1CCC(c3cccc(OCc4ccc(Cl)cc4F)n3)CC1)n2C[C@@H]1CCO1 [Compound 62]	2630	1320	0.51
Cc1n[nH]c2c(C)cc(C(=O)Nc3ccc4c(c3)nc(CN3CC=C(c5cccc6c5O[C@@](C)(c5ccc(Cl)cc5F)O6)CC3)n4CC3CCO3)cc12 (stereo partly shown) [Compound 384]	110	68.3	0.08
Cc1n[nH]c2c(C)cc(NC(=O)c3ccc4c(c3)nc(CN3CC=C(c5cccc6c5O[C@@](C)(c5ccc(Cl)cn5)O6)CC3)n4CC3CCO3)cc12 (stereo partly shown) [Compound 382]	689	342	0.1
Cc1cc(NC(=O)c2ccc3c(c2)nc(CN2CC=C(c4cccc(OCc5ccc(C#N)cc5F)n4)CC2)n3C[C@@H]2CCO2)cc2c1NC(=O)C21CC1 [Compound 178]	875	430	0.19
O=C(Nc1ccc2c(c1)nc(CN1CC=C(c3cccc(OCc4ccc(Cl)cc4F)n3)CC1)n2C[C@@H]1CCO1)c1ccc2c(c1)C1(CC1)C(=O)N2 [Compound 203]	158	90.3	0.24
Cc1n[nH]c2c(C)cc(NC(=O)c3ccc4nc(CN5CC=C(c6cccc(OCc7ccc(C#N)cc7F)n6)CC5)n(CC5CCO5)c4c3)cc12 (stereo not shown) [Compound 276]	2460	1010	0.65
Cc1n[nH]c2ccc(NC(=O)c3ccc4c(c3)nc(CN3CC=C(c5cccc6c5O[C@@](C)(c5ccc(Cl)cc5F)O6)CC3)n4C[C@@H]3CCO3)cc12 [Compound 5, 2-((4-((S)-2-(4-chloro-2-fluorophenyl)-2-methylbenzo[d][1,3]dioxol-4-yl)-3,6-dihydropyridin-1(2H)-yl)methyl)-N-(3-methyl-1H-indazol-5-yl)-1-(((S)-oxetan-2-yl)methyl)-1H-benzo[d]imidazole-5-carboxamide]	1700	911	0.12
Cc1n[nH]c2c(F)cc(C(=O)Nc3ccc4c(c3)nc(Cc3cc(F)c(-c5cccc(OCc6ccc(Cl)cc6F)n5)cc3CO)n4C[C@@H]3CCO3)cc12 [Compound 416]	54.3	29.3	0.37
Cc1n[nH]c2c(C)cc(C(=O)Nc3ccc4c(c3)nc(C3CC35CCN(c3cccc(OCc6ccc(Cl)cc6F)n3)CC5)n4CC3CCO3)cc12 (stereo not shown) [Compound 245]	146	82.3	0.51
Cc1n[nH]c2c(C)cc(C(=O)Nc3ccc4c(c3)nc(CN3CC=C(c5cccc(OCc6ccc(C#N)cc6F)n5)CC3)n4C[C@@H]3CCO3)cc12 [Compound 229]	122	75.9	0.21
O=C(Nc1ccc2[nH]nnc2c1)c1ccc2c(c1)nc(CN1CC=C(c3cccc(OCc4ccc(Cl)cc4F)n3)CC1)n2C[C@@H]1CCO1 [Compound 166]	2650	1320	0.76
Cc1c(C#N)sc(COc2cccc(C3CCN(Cc4nc5cc(NC(=O)c6ccc7[nH]nc(C)c7c6)ccc5n4C[C@@H]4CCO4)CC3)n2)c1F [Compound 373]	–	–	0.39
COCCn1c(CN2CCC(c3cccc(OCc4ccc(Cl)cc4F)n3)CC2)nc2cc(C(=O)NCC(=O)c3ccc(O)c(O)c3)ccc21 [Compound 42]	–	–	> 10000
COCCn1c(CN2CCC(c3cccc(OCc4ccc(Cl)cc4F)n3)CC2)nc2cc(C(=O)NCCCc3ccc(OC)cc3)ccc21 [Compound 20]	–	–	3240
Cc1c(C#N)sc(COc2cccc(C3=CCN(Cc4nc5cc(NC(=O)c6ccc7[nH]nc(C)c7c6)ccc5n4C[C@@H]4CCO4)CC3)n2)c1F [Compound 361]	–	–	0.9
O=C(Nc1ccc2[nH]nc(C(F)(F)F)c2c1)c1ccc2c(c1)nc(CN1CCC(c3cccc(OCc4ccc(Cl)cc4F)n3)CC1)n2C[C@@H]1CCO1 [Compound 111]	–	–	2.34

SMILES	IC50 (GLP-1R [1]) [nM]	Ki (GLP-1R [1]) [nM]	EC50 (GLP-1R [2]) [nM]
O=C(Nc1ccc2c(c1)nc(CN1CC=C(c3cccc(OCc4ccc(Cl)cc4F)n3)CC1)n2C[C@@H]1CCO1)c1ccc2[nH]ncc2c1 [Compound 204]	–	–	0.63
Cc1n[nH]c2ccc(NC(=O)c3ccc4c(c3)nc(CN3CCC(c5cccc(OCc6ccc(C#N)cc6F)n5)CC3)n4C[C@@H]3CCO3)cc12 [Compound 133]	–	–	0.38
Cc1cc(NC(=O)c2ccc3c(c2)nc(CN2CC=C(c4cccc(OCc5ccc(C#N)cc5F)n4)CC2)n3C[C@@H]2CCO2)cc2cn[nH]c12 [Compound 188]	–	–	1.19
COC(=O)[C@@H]1C[C@H](O)CN1C(=O)CNC(=O)c1ccc2c(c1)nc(CN1CCC(c3cccc(OCc4ccc(C#N)cc4F)n3)CC1)n2C[C@@H]1CCO1 [Compound 47]	–	–	9.6
Cc1cc(C(=O)Nc2ccc3c(c2)nc(Cc2c(F)cc(-c4cccc5c4OC(C)(c4ccc(Cl)cc4F)O5)cc2F)n3C[C@@H]2CCO2)cc2[nH]c(=O)[nH]c12 (stereo partly shown) [Compound 321]	–	–	0.94
Cc1n[nH]c2ccc(C(=O)Nc3ccc4c(c3)nc(CN3CCC(c5cccc(OCc6ccc(Cl)cc6F)n5)CC3)n4CCOC(F)(F)F)cc12 [Compound 261]	–	–	0.81
Cc1cc(NC(=O)c2ccc3c(c2)nc(CN2CC=C(c4cccc(OCc5ccc(Cl)cc5F)n4)CC2)n3C[C@@H]2CCO2)cc2c(C3CC3)n[nH]c12 [Compound 164]	–	–	1.68
Cc1cc(C(=O)Nc2ccc3c(c2)nc(CN2CCC(c4cccc5c4OC(C)(c4ccc(Cl)cc4F)O5)CC2)n3C[C@@H]2CCO2)cc2c1NC(=O)C21CC1 (stereo partly shown) [Compound 343]	–	–	0.54
Cc1cc(NC(=O)c2ccc3c(c2)nc(CN2CC=C(c4cccc(OCc5ccc(Cl)cc5F)n4)CC2)n3C[C@@H]2CCO2)cc2c1NC(=O)C21CC1 [Compound 155]	–	–	0.55
Cc1n[nH]c2c(C3CC3)cc(NC(=O)c3ccc4c(c3)nc(CN3CCC(c5cccc(OCc6ccc(Cl)cc6F)n5)CC3)n4C[C@@H]3CCO3)cc12 [Compound 118]	–	–	8.31
N#Cc1ccc(COc2cccc(C3=CCN(Cc4nc5cc(C(=O)Nc6ccc7c(c6)C6(CC6)C(=O)N7)ccc5n4C[C@@H]4CCO4)CC3)n2)c(F)c1 [Compound 182]	–	–	0.32
O=C(NC1=Nc2nccn2C1)c1ccc2c(c1)nc(CN1CC=C(c3cccc(OCc4ccc(Cl)cc4F)n3)CC1)n2C[C@@H]1CCO1 [Compound 400]	–	–	104
CCn1cncc1Cn1c(Cc2c(F)cc(-c3cccc4c3O[C@](C)(c3ccc(Cl)cn3)O4)cc2F)nc2cc(NC(=O)c3cc(F)c4[nH]nc(C)c4c3)ccc21 [Compound 412]	–	–	3.1
N#Cc1ccc(COc2cccc(C3CCN(Cc4nc5cc(C(=O)Nc6ccc7[nH]nc(C(F)(F)F)c7c6)ccc5n4C[C@@H]4CCO4)CC3)n2)c(F)c1 [Compound 130]	–	–	1.34
COCCn1c(CN2CCC(c3cccc(OCc4ccc(Cl)cc4F)n3)CC2)nc2cc(C(=O)NCc3ccc(O)c(OC)c3)ccc21 [Compound 28]	–	–	75.7
Cc1n[nH]c2cc(NC(=O)c3ccc4c(c3)nc(CN3CCC(c5cccc(OCc6ccc(Cl)cc6F)n5)CC3)n4C[C@@H]3CCO3)ccc12 [Compound 94]	–	–	372
O=C(Nc1ccc2[nH]nc(C(F)(F)F)c2c1)c1ccc2c(c1)nc(CN1CC=C(c3cccc(OCc4ccc(Cl)cc4F)n3)CC1)n2C[C@@H]1CCO1 [Compound 161]	–	–	0.87
COCCn1c(CN2CCC(c3cccc(OCc4ccc(Cl)cc4F)n3)CC2)nc2cc(C(=O)NCc3cccc(O)c3)ccc21 [Compound 32]	–	–	112
O=C(NCC(=O)N1C[C@@H](O)[C@@H](O)C1)c1ccc2c(c1)nc(CN1CCC(c3cccc(OCc4ccc(Cl)cc4F)n3)CC1)n2C[C@@H]1CCO1 [Compound 67]	–	–	5.89
COCCn1c(CN2CCC(c3cccc(OCc4ccc(Cl)cc4F)n3)CC2)nc2cc(C(=O)NCC(CC(=O)O)c3ccccc3)ccc21 (stereo not shown) [Compound 41]	–	–	376
